# Measured values reported in patent US6566047B1, “Method for identifying neurite-growth promoting agents” (The Regents of the University of Colorado, priority 1998, dated 2003).
# “Also recorded” adds a separate entry of the source.
# Assays:
# [1] = tested on: MAT-Lu cells; assay: Pseudopod morphometry (pseudopod length assay), MAT-Lu cells; assay type: cell-based, rat; conditions: for effect of agent alone on pseudopod length: typically 15 min exposure; for effect of inhibitor pretreatment on AA-induced pseudopod shortening: 15 min pretreatment, indomethacin 10 ηm, NDGA 25 μM, CDC 63 and 126 nM
# Experimental: Pseudopod Morphometry. To study the effects of various agents on pseudopods on a short-term basis, we measured pseudopod lengths. Cells plated in 35-mm diameter dishes at low density (1×10^4 per dish) were incubated overnight, tie medium was changed, and the experiments were run four hours later. First, cultures were shifted to serum-free medium, which was replaced one hour later by serum-free medium with or without the various agents (thrombin, AA or HETEs). Care was taken to avoid heat and light inactivation of the eicosanoids. Culture dishes were placed on a Zeiss inverted microscope equipped with a heated stage and viewed with a 16×phase contrast objective lens. Randomly selected fields of the cultures, containing generally about 20 cells each, were recorded, digitized and stored in the computer at the onset of the experiment and at different times thereafter.
# In some cases, individual cells were monitored over different periods of time immediately after introduction of the reagent, either by mixing it into the medium or by applying it locally to one end of the cell. Local application was done with a “puffer” system that expels microliter amounts of the desired solution from a micromanipulator-controlled micropipette tip. Cell morphology was recorded, and the captured images were analyzed with a Power Macintosh computer using NIH Image. Cell process length was measured from the center of the nucleus to the end of the process. Characterization of the frequencies of pseudopod lengths, at a fixed time for each of a sequence of concentrations of reagent, utilized a gamma regression model with an inverse quadratic linear predictor (McCullagh and Nelder, Generalized Linear Models 2d ed., pp. 291-292 (Chapman & Hall, 1989), separately fit to each concentration data set. Although no formal goodness-of-fit tests were carried out, in virtually every case there was good visual representation of the pattern of response (see FIG. 14). Most data, however, are shown as whisker-box plots, where the center point represents the 50%, the ends of the box the […] and 75%, and the “whiskers” the 5% and 95% quantiles (e.g., FIG. 11). Statistical comparisons of pseudopod lengths for different treatments were done by standard non-parametric techniques (Wilcoxon Rank Sum or Kruskal-Wallis Tests), as judged appropriate. Polynomial curve fittings were done by standard least-squares techniques. Statistical analyses and graphing were done with the use of SAS procedures: Reg, Phreg, Nparlway and Plot (SAS institute Inc., Cary, N.C.).
# [2] = tested on: growth cone PLA2; assay: PLA2 assay in growth cone particles (GCPs); assay type: biochemical, rat; conditions: GCPs
# Experimental: Growth Cone Particle (GCP) Isolation. GCPs were prepared as described by Pfenninger et al. (1983) and modified by Lohse et al., Dev. Brain Res., 96:38-96 (1996). Briefly, 18-day fetal brains were homogenized in approximately 8 volumes of 0.32 M sucrose containing 1 mM MgCl2, 2 mM TES buffer, pH 7.3, and 3 μM aprotinin. A low-speed supernatant (1,660 g×15 min) was loaded onto a discontinuous sucrose density gradient With steps of 0.83 M and 2.66 M sucrose containing MgCl2 and TES. The gradients were spun to equilibrium at 242,000 g for 40 min in a vertical rotor (Vti50, Beckman). The GCP fraction at the 0.32/0.83 M sucrose interface was collected and used for the experiments described below.
# All assays were run in triplicate.
# [3] = tested on: growth cones in cultures of rat cerebral cortex; assay: Growth cone collapse assay in cortical neuron culture; assay type: cell-based; conditions: for effect of inhibitor pretreatment on thrombin- or TRAP-induced growth cone collapse: CDC 10 μM, indomethacin 25 μM, pretreatment 30-45 min
# Experimental: Neuron Culture. Cerebral cortices were dissected from embryonic day 18 Sprague-Dawley rats, cut into explants of less than 1 mm^3 and cultured on either poly-D-lysine-coated coverglass (Assistent) or poly-D-lvsine-coated tissue culture plastic. After 24 hours in B27 neurobasal medium (NB) supplemented with 10% fetal bovine serum, cultures were switched to serum-free B27/NB. The cultures were incubated at 37° C. in 5% CO2 in air. Sprouting neurons were observed readily on day 1. On day 2 or 3, long neurites were present, and the cultures were used for collapse experiments.
# Actin Staining. After experimentation, cultures were fixed by slow infusion of fixative (4% paraformaldehyde in 0.1 M phosphate buffer, pH 7.4) into the culture dishes over 10 min (Pfenninger and Maylié-Pfenninger, J. Cell Biol. 89:53-546 (1981)). Thereafter, the fixative was removed by rinsing three times with phosphate-buffered saline (PBS) containing 1 mM glycine. Cultures were then blocked with PBS/1% bovine serum albumin (BSA) and permeabilized by incubation in 0.02% Triton X-100 for 5 min. After three washes in PBS/BSA, cultures were incubated with Texas-Red-conjugated phalloidin for 30 min. Unbound phalloidin was washed away by two PBS rinses, after which the coverglasses were mounted in Slow-Fade Light on microscope slides. Images were recorded on 35 mm film using a Zeiss Axiophot fluorescence microscope equipped with epiillumination.
# Growth Cone Collapse Assay. Prior to repellent factor treatment, some of the day 2-3 explant cultures were pre-incubated (at 37° C.) with inhibitor or vehicle control (dimethylsulfoxide or ethanol) for 30-60 min. Cultures were then challenged with a repellent factor or vehicle control for 1-30 min. In some experiments, live cultures were photographed with a Zeiss IM 35 inverted photo microscope equipped with a stage heater, while in others cultures were fixed (as above) after 7 minutes of repellent factor treatment. Growth cone collapse was assessed quantitatively in aldehyde-fixed cultures by grading the degree of collapse in a large number of randomly selected growth cones.
# [4] = tested on: GCPs plated on laminin; assay: GCP release (detachment) assay on laminin; design: species or system rat; conditions: 20 min at 37° C., cytochalasin D 1 μM
# Experimental: GCP Release Assay. Petri dishes (35 mm diameter) were coated with 10 μg mouse laminin in PBS by incubation at room temperature for 60 min with shaking. Dishes were subsequently rinsed three times with PBS to remove unbound laminin and then blocked with 5% non-fat dry milk (Carnation) in PBS for 30 min. After three PBS rinses to remove blocking agent, the dishes were ready for the addition of GCPs. […] After incubation for five min at 37° C. this buffered GCP preparation was added to the laminincoated petri dishes. Contact with the substratum was facilitated by centrifuging the dishes for 15 min at 5000 g (Beckman JS5.2 rotor) at room temperature, followed by incubation at 37° C. to allow adhesion site formation. After 10 min, unattached GCPs were removed by rinsing the dishes twice with 1× modified Krebs buffer. Plated GCPs were then challenged with repellent factor (TRAP or thrombin) for 20 min at 37° C. The supernatant containing released GCPs was collected and centrifuged for protein determination of the pellet. GCPs that remained attached after repellent treatment were removed with 5% sodium dodecyl sulfate (SDS) for protein assay. Protein was measured according to Lowry et al. (1951) as modified by Peterson (1983). Results of these experiments were expressed as the percentage of released versus total GCP protein in the assay.
# [5] = tested on: protein kinase C (PKC); assay: MARCKS phosphorylation by PKC in isolated GCPs; assay type: biochemical, rat; conditions: isolated growth cones
# Description: FIG. 7A. Thrombin stimulates MARCKS phosphorylation in a 12-LOX-dependent manner. FIG. 7B. 12(S)-HETE stimulates MARCKS phosphorylation by PKC in isolated GCPs. […] Polypeptides were resolved by SDS-PAGE. MARCKS phosphorylation was quantified by phosphorimaging.
# [6] = tested on: 12-Lox; assay: Eicosanoid (HETE) generation in GCPs; assay type: biochemical, rat
# Experimental: Eicosanoid Assays. Eicosanoid production in GCPs was measured by metabolic labelling from ^14C-AA or ^14C-AA-PC or by mass spectrometric detection. […] To measure Lox activity directly, without PLA2 involvement, ^3H-AA was the substrate of choice. Reactions were stopped by the addition of chloroform/methanol as for the phospholipase assays. Reaction products were extracted as described by Birkle et al., Neuromethods, vol. 7, pp.227-244 (Humana Press, N.J. 1988), spotted on pre-activated si gel 60 TLC plates, and the plates developed in the upper phase of ethyl acetate/isooctane/acetic acid/water (100:60:20:100). AA and HETEs were identified by co-migration with standards. Appropriate bands were counted by liquid scintillation spectrometry.
# For mass-spectrometric (MS) identification of HETEs, two different strategies were pursued:
# (1) the appropriate bands from non-labelled samples (PC substrate) were scraped from the TLC plate into ether/methanol (9:1) and stored under N2 at −20° C. Authentic 12(S)-HETE, run alongside in the same manner, was used as a standard. Just prior to analysis, samples were passed over an SPE filter to eliminate silica particles, dried under argon, resuspended in 500 μl ethanol, and injected (at 3 μl/min) into a Finnigan LCQ quadrupole ion trap mass spectrometer (Finnigan MAT, San Jose, Calif.) equipped with an electrospray ionization source. All spectra were acquired at a capillary temperature of 80° C., and ion guide voltages were tuned to maximize the abundance of the deprotonated ion species [M-H]^− in negative mode. In order to generate a spectrum, typically 100 single scans were averaged.
# (2) For the other strategy (liquid chromatography/tandem MS, LC/MS^2), the reaction substrate consisted of 3.5 μM AA, with the addition of 3.5 μM deuterated AA (AA-D8) plus 1 μCi ^3H-AA to track reaction products by mass and radioactivity, respectively. Reactions were stopped with ice-cold ethanol, the mixtures kept overnight at −20° C. under N2, and the proteins spun out The supernatants were diluted with H2O and loaded onto 1-ml C18 Sep-Pak columns (Varian). After washing with H2O, eicosanoid was eluted with 2 ml methanol. These samples were resolved by reverse-phase HPLC, and the eluted fractions analyzed by tandem MS on-line (MacMillan and Murphy, 1995). Collision-induced decomposition of HETE isomers produced characteristic fragments that were identified at the second MS stage.
compound,measurement,setting,value
"CCCCC[C@H](O)/C=C/C=C\C/C=C\C/C=C\CCCC(=O)O [15(S)-HETE, 15(S)-hydroxyeicosatetraenoic acid]",effect of agent alone on pseudopod length,[1],about as active as 12(S)-HETE; also recorded: reduced pseudopod lengths of MAT-Lu cells in a biphasic manner
SFLLRN [TRAP],activation of growth cone cPLA2/PLA2,[2],"clearly stimulated PLA2, but to a considerably lesser degree"
same,activation of growth cone cPLA2/PLA2,[2]; listed as TRAPs,much less effectively
same,"growth cone collapse, agent alone","[3]; thrombin 100 nM, TRAP (100 mM), 12(S)-HETE 10^−7 M","qualitatively the same effect as thrombin, but the change is not as pronounced"
same,effect on GCP detachment from laminin,[4],mimics the effect
same,effect on GCP detachment from laminin,[4]; listed as TRAPs,much less effectively
CCCCC/C=C\C[C@@H](O)/C=C/C=C\C/C=C\CCCC(=O)O [12(R)-HETE],effect of agent alone on pseudopod length,[1],essentially inactive; also recorded: small reduction in pseudopod length
same,stimulation of MARCKS and GAP43 phosphorylation,[5],not
"CC(Cc1ccc(O)c(O)c1)C(C)Cc1ccc(O)c(O)c1 (stereo not drawn) [NDGA, nordihydroguaiaretic acid]",effect of inhibitor pretreatment on AA-induced pseudopod shortening,[1],blocked the AA effect completely; also recorded: inhibited the pseudopod shortening
same,effect of agent alone on pseudopod length,[1],had no effect on pseudopod lengths
same,effect on conversion of 14C-AA into 12(S)-HETE,"[6]; 60 min, 37° C.",blocked
same,effect of inhibitor pretreatment on thrombin- or TRAP-induced growth cone collapse,[3],protects growth cones from thrombin- or TRAP-induced collapse
insulin: insulin from Collaborative Biomedical Products,activation of growth cone cPLA2/PLA2,[2],failed to stimulate PLA2 significantly
same,net activity (pmol/min/mg protein),"[2]; Table 3c, substrate PI, BDNF 100, IGF-1 0.75, insulin 1, thrombin 200 nM, control 159 ± 6.2",158 ± 8.4 pmol/min/mg protein
NGF: growth factor whose receptors are present on GCPs,activation of growth cone cPLA2/PLA2,[2],only weakly or not at all
COc1ccc2c(c1)c(CC(=O)O)c(C)n2C(=O)c1ccc(Cl)cc1 [indomethacin],effect of inhibitor pretreatment on AA-induced pseudopod shortening,[1],did not influence the AA effect; also recorded: had no effect at all
same,effect of inhibitor on thrombin-stimulated HETE production from AA,[6]; 3H-AA substrate,not
same,effect of inhibitor pretreatment on thrombin- or TRAP-induced growth cone collapse,[3],has no effect on control or thrombin treatment of growth cones
C=C1[C@@H](C)[C@H]2[C@H](Cc3ccccc3)NC(=O)[C@]23[C@H](OC(C)=O)/C=C/[C@@](C)(O)C(=O)[C@@H](C)C/C=C/[C@H]3[C@@H]1O [cytochalasin D],effect on GCP detachment from laminin,[4],caused considerable release of GCPs by themselves
CCCCC/C=C\C/C=C\C/C=C\C=C\[C@@H](O)CCCC(=O)O [5(S)-HETE],effect of agent alone on pseudopod length,[1],essentially inactive; also recorded: had no effect on pseudopod length
"CC(=O)C(C)=NO [BDM, 2,3-butanedione monoxime]",effect on GCP detachment from laminin,[4],caused considerable release of GCPs by themselves
